Measured values taken from patent US20210380586A1, “2-INDOLYL IMIDAZO[4,5-D]PHENANTHROLINE POLYMORPHS AND COMPOSITIONS REGARDING THE SAME” (Aptose Biosciences Inc., priority 2020, published 2021).

Assay: Variable relative humidity (VRH)-XRPD analysis
Type: physicochemical
Experimental: To investigate the behavior of Crystalline Form 2 at various humidities and evaluate conditions that favor generation of Form 2 (tetrahydrate) versus Form 3 (dihydrate), Form 2 was characterized by VRH-XRPD. The analysis was conducted by beginning at ambient RH (˜50%) and lowering to 0% RH for 4 hours. Actual RH during this time ranged from 0.7-0.3%.

VRH-XRPD Results (Held at ~0.3-0.7% RH, 4 hours): Form 2 + Form 3; amount of Form 3
VRH-XRPD Results (Initial scan at ambient RH (46.3%)): Consistent with Form 2
VRH-XRPD Results (finally held at ambient RH (~40% to ~37%)): Form 2 + trace amount of Form 3
VRH-XRPD Results (then held at ~50% RH, 1 hour (cycling back)): Form 2, possibly contains trace
VRH-XRPD Results (then held at ~50% RH, 1 hour (increasing RH)): Form 2 + Form 3
VRH-XRPD Results (then held at ~80% RH, 1 hour (cycling back)): Form 2, possibly contains trace
VRH-XRPD Results (then held at ~82-79% RH, 1 hour): Form 2 + trace amount of Form 3
VRH-XRPD Results (then held at ~85-87% RH, 2 hours): Form 2, possibly contains trace
Structure (SMILES): Cc1[nH]c2ccc(F)cc2c1-c1nc2c3cccnc3c3ncccc3c2[nH]1 [Compound I-hydrate Form 2]
